The record followed here is ChEMBL document CHEMBL3351331, “Novel Disubstituted Pyrimidines as Inhibitors of Bruton's Tyrosine Kinase” (ACS Med Chem Lett, 2015).

Molecules are shown by their SMILES.

The experiment deals with Tyrosine-protein kinase BTK (Homo sapiens, UniProt Q06187). Briefly: Inhibition of BTK (unknown origin) by Omnia continuous read kinase assay.
Chain of Tyrosine-protein kinase BTK (Q06187 whole entry): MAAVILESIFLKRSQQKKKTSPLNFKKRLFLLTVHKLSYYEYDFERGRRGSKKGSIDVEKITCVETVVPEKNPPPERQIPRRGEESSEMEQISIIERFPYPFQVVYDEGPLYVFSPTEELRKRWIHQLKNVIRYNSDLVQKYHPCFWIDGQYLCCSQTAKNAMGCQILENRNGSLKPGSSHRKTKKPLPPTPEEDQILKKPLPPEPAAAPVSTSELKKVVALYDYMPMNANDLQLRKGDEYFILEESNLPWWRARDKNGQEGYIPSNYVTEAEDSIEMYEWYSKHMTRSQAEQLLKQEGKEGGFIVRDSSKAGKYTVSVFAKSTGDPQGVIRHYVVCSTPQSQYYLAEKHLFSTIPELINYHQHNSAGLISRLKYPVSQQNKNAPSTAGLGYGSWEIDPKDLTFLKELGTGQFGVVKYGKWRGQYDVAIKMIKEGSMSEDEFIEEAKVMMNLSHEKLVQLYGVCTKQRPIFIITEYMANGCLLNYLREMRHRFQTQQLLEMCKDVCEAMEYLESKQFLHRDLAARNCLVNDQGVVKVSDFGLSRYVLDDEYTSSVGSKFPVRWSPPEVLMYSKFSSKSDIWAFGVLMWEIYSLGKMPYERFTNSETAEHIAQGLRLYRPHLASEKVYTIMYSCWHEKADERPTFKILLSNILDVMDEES
Take `C=CC(=O)Nc1cccc(N(C)c2nc(Nc3ccc(OCCO)cc3)ncc2F)c1`: the half-inhibitory concentration (IC50) is below 10 nM.
In turn, `COCCOc1ccc(Nc2ncc(F)c(Nc3cccc(NC(=O)C(O)CO)c3)n2)cc1` (stereo unspecified) returned a 50% inhibitory concentration (IC50) of 101 nM.
With `C=CC(=O)Nc1cccc(Nc2nc(Nc3ccc(OCCO)cc3)ncc2F)c1` the figure was below 10 nM.
To `C=CC(=O)Nc1cccc(Nc2nc(Nc3ccc(O)cc3)ncc2F)c1` belongs below 10 nM; to `COCCOc1ccc(Nc2ncc(F)c(Nc3cccc(NC(=O)C4CO4)c3)n2)cc1` (stereo unspecified), below 10 nM.
With `C=CC(=O)Nc1cccc(Nc2nc(N(C)c3ccc(OCCO)cc3)ncc2F)c1` the figure was 101 nM.

One may read the IC50 as the concentration that inhibits the measured activity by half. A lower IC50 goes with greater potency in that assay.
